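Assay format: 96-well plates, 48-hour exposure. The concentration for full growth arrest is given as TGI.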
Columns and labels:
Assay in all cases: NCI tumour cell line growth inhibition, 48 h
[1] = tested on: A498 renal
[2] = tested on: CAKI-1 renal
[3] = tested on: CCRF-CEM leukemia
[4] = tested on: HCT-15 colon
[5] = tested on: M14 melanoma
[6] = tested on: NCI-H226 lung
[7] = tested on: OVCAR-4 ovarian
[8] = tested on: RXF 393 renal
[9] = tested on: U251 CNS
[10] = tested on: UACC-257 melanoma

SMILES | TGI [1] | TGI [2] | TGI [3] | TGI [4] | TGI [5] | TGI [6] | TGI [7] | TGI [8] | TGI [9] | TGI [10]
N#Cc1cc2c(n(C3OC(CO)C(O)C(O)C3O)c1=S)CCC2 (stereo not given) | > 100 µM | > 100 µM | > 100 µM | > 100 µM | > 100 µM | > 100 µM | > 100 µM | > 100 µM | > 100 µM | > 100 µM
NCC1OC(OC2C(N)CC(N)C(O)C2OC2OC(CO)C(O)C2O)C(N)C(O)C1O (stereo not given) | > 100 µM | > 100 µM | > 100 µM | > 100 µM | > 100 µM | > 100 µM | > 100 µM | > 50 µM | > 100 µM | > 100 µM
CC1=NN(c2cc(Cl)c(S(=O)(=O)O)cc2Cl)C2(C1)C(Cl)C(=O)N2c1nc2ccccc2s1 (stereo not given) | > 100 µM | > 100 µM | > 100 µM | > 100 µM | > 100 µM | > 100 µM | > 100 µM | > 100 µM | > 100 µM | > 100 µM
CCOC(=O)c1c(-c2ccc(Cl)cc2)c(C#N)c(=S)n(C2OC(COC(C)=O)C(OC(C)=O)C(OC(C)=O)C2OC(C)=O)c1C (stereo not given) | > 100 µM | > 100 µM | > 100 µM | > 100 µM | > 100 µM | > 100 µM | > 100 µM | > 100 µM | > 100 µM | > 100 µM
COC(=O)c1sc2c(Cl)c(Cl)sc2c1Cl | > 100 µM | > 100 µM | > 100 µM | > 100 µM | > 100 µM | > 100 µM | > 100 µM | > 100 µM | > 100 µM | > 100 µM
O=c1ccc(=O)c2c1c1[nH]c3ccccc3c1c1c(=O)c3ccccc3c(=O)c21 | > 10 µM | > 10 µM | > 10 µM | > 10 µM | > 10 µM | > 10 µM | > 10 µM | > 10 µM | > 10 µM | > 10 µM
COc1ccc(C=C2C(C)=NN(c3cccc(Cl)c3)C23C(Cl)C(=O)N3c2nc3ccccc3s2)cc1 (stereo not given) | 34.8 µM | 61 µM | 30.5 µM | 37.1 µM | 44.5 µM | 79.1 µM | 93.5 µM | 28 µM | 40.9 µM | 72.3 µM
COc1ccc(Nc2nc(N)c(C(=O)c3ccco3)s2)cc1 | > 61.1 µM | > 100 µM | > 56.1 µM | > 100 µM | > 100 µM | > 72.2 µM | > 89.9 µM | > 77.6 µM | > 100 µM | > 100 µM
CCOc1ccc(Nc2nc(N)nc(N)c2N=O)cc1 | > 100 µM | 38.5 µM | > 100 µM | > 100 µM | > 100 µM | > 100 µM | > 100 µM | > 100 µM | > 100 µM | > 100 µM
O=c1c2ccccc2n2nnc3ccc(NCCNCCO)c1c32 | 5.52 µM | 10 µM | 14.9 µM | 9.42 µM | 5.2 µM | 5.06 µM | 6.34 µM | 7.24 µM | 6.73 µM | 12.3 µM
CCn1c(-c2cc3ccccc3cc2OC(C)=O)n[nH]c1=S | 84.8 µM | > 100 µM | 34.2 µM | 87.1 µM | > 100 µM | > 100 µM | > 100 µM | 33.5 µM | 51.4 µM | 62.6 µM
CN(Cc1ccccc1)C(=S)S | > 100 µM | > 100 µM | 49.2 µM | > 100 µM | 72.6 µM | > 100 µM | > 100 µM | > 100 µM | > 100 µM | > 100 µM
COc1cc2c(cc1OC)C(C1CC1)ON(C)CC2 (stereo not given) | > 100 µM | > 100 µM | > 100 µM | > 100 µM | > 100 µM | > 100 µM | > 100 µM | > 100 µM | > 100 µM | > 100 µM
COc1cc(/C=C2\C(=O)N(c3ccc(Cl)cc3)C(c3ccccc3)S2(=O)=O)cc(OC)c1OC (stereo not given) | > 100 µM | > 100 µM | > 70.7 µM | > 100 µM | > 61.6 µM | > 100 µM | > 100 µM | > 100 µM | > 100 µM | > 100 µM
FC(F)(Sc1ncccn1)c1nc2ccccc2o1 | > 100 µM | > 100 µM | > 100 µM | > 100 µM | > 100 µM | > 100 µM | > 100 µM | > 100 µM | > 100 µM | > 100 µM
CC1CC(C)(C)CC(OCCN2CCCCC2)(c2ccccc2)C1 (stereo not given) | 26.1 µM | 25.5 µM | 24.9 µM | 27.5 µM | 14.4 µM | 38.3 µM | 24 µM | 23.8 µM | 25.5 µM | 24.2 µM

Source: PubChem BioAssay (NCI)
